In PMC4712357 (Molecular informatics, 2015):

Assay: Vesicle rupture assay
Assay type: biochemical
Conditions: POPC LUVs, relative to Triton X-100 (=100%)

Sequence: EWGQGLTSFWHL [compound 2]
- rupturing of POPC vesicles: 50–75%
